From paper PMC5353646, “Allosteric modulation of peroxisomal membrane protein recognition by farnesylation of the peroxisomal import receptor PEX19” (Nature Communications, 2017)

Experiments:
PEX19 CTD M255R = test: Fluorescence polarization, ALDP peptide binding to PEX19 CTD M255R; design: species or system human; details: with or without farnesylation, FITC-labelled ALDP peptide 20 nM, triplicate (n = 3)
Procedure: (§1) ALDP peptide (62-AAKAGMNRVFLQRLL-76) fused N-terminally with fluorescein isothiocyanate (FITC), was purchased from Peptide Specialty Laboratories GmbH. The lyophilized powder was dissolved in 1 ml water resulting in a 5 mM stock solution. Overnight dialysis against buffer containing 50 mM Tris pH 8.0, 50 mM NaCl, removed trifluoroacetate counterions. For the determination of each binding curve a 12 point titration was performed with constant concentration of 20 nM labelled peptide with increasing concentrations of PEX19 CTD variants. Starting concentration of PEX19 CTD was 1 mM with 12 serial dilutions reaching 0.5 μM. Reaction mixtures were then transferred into 96-well Optiplate and measured as triplicates in PerkinElmer EnVision plate reader. […]
(§2) Supplementary Figure 6: ALDP af finity measurement for PEX19 CTD proteins using a fluorescence polarization assay . Polarization plots as a function of protein concentration for the direct titration of PEX19 non-farnesylated (black) and farnesylated (red) forms (wild type and residue spedific mutants) into fluorescein-labeled ALDP peptide. […]
(§3) (also on this page, place not known: assay. affinity Fluorescence polarization (mP) wt wtfarn Fluorescence polarization (mP) M179Rfarn 0.00 1.00 Fluorescence polarization (mP) M255Rfarn 0.00 1.00 Fluorescence polarization (mP) I195Kfarn Kd Kd /uni03BCM)

[1] = molecular target: T1, farnesylated wild type PEX19 CTD (Homo sapiens, UniProt P40855); test: Fluorescence polarization, ALDP peptide binding to farnesylated wild type PEX19 CTD
T1 construct: we studied the human PEX19 CTD (residues 161–299) that includes the native C-terminus; hexahistidine (TEV-cleavable) (cleaved yes); made in house; host or cells: Escherichia coli BL21 (DE3); farnesylated in vitro with recombinant S. cerevisiae farnesyl transferase
T1 sequence (P40855 161-299): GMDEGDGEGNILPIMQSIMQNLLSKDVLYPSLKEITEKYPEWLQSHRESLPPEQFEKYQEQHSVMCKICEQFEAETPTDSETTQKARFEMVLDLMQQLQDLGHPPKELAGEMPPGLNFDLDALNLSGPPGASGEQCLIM
Procedure: as §1, §2
standard deviations for triplicate measurements (n = 3).
as §3

[2] = NMR 13C secondary chemical shifts (peptide conformation); type: physicochemical; details: C-terminally extended version of the ALDP peptide with additional tryptophan (residue 68 to 82)
From the text: Phe71 aromatic ring protons
Residue number Leucine residue
Supplementary Figure 8: Intermolecular NOEs between PEX19 CTD and the ALDP peptide, and secondary structure of the latter. (a) 1H,1H plane of a 3D ω1-filtered, ω2-edited 13C-NOESY-HSQC experiment of farnesylated PEX19 CTD free (black) and bound to the ALDP peptide (red). Methyl and methylene protons of the unlabeled farnesyl group of the PEX19 CTD show NOEs with protons of the isotope-labeled farnesylated PEX19 CTD (black circles). In the presence of also unlabeled ALDP peptide additional intermolecular methyl-methyl and aliphatic-aromatic NOEs are observed (red circles and below). (b) NMR 13C secondary chemical shifts of a C-terminally extended […]
tion. (c) Due to signal overlap, 5 out of 7 spin systems for leucine residues were assigned. Nevertheless, also the leucines residues adopt a helical conformation.
(also on this page, place not known: (Leu75)(Leu76) (Leu81)(Leu82) 5 LeuC Cα- Cβ [p.p.m.] Cα- Cβ [p.p.m.] c ω2 ω1 1H (p.p.m.) ω1 1H (p.p.m.) QDPro273/Pro274 { - - { 5)

[3] = molecular target: T2, non-farnesylated PEX19 CTD (Homo sapiens, UniProt P40855); test: NMR titration of non-farnesylated PEX19 CTD with PMP peptides; type: binding; details: 100 μM PEX19 CTD; peptide molar ratio up to 10:1; 1H,15N HSQC; 298 K
T2 construct: we studied the human PEX19 CTD (residues 161–299) that includes the native C-terminus; hexahistidine (TEV-cleavable) (cleaved yes); made in house; host or cells: Escherichia coli BL21 (DE3)
T2 sequence (P40855 161-299): T1 sequence (P40855 161-299)
Procedure: Figure 4 NMR analysis of PMP binding to non-farnesylated and farnesylated PEX19 CTD. (a) Comparison of ^1H,^15N HSQC spectra of 100 μM non-farnesylated CTD free (black) and in the presence of 10-fold excess of the ALDP-derived peptide (cyan). (b) Comparison of ^1H,^15N HSQC spectra of 100 μM farnesylated PEX19 CTD free (black) and in the presence of 5 (green) and 10 (red) molar ratio of the ALDP peptide. The grey dashed line indicates the position of additional baseline correction applied to remove noise from DMF signals in the peptide stock solution. (c) Chemical shift perturbation of Met/Ile methyl groups seen in ^1H,^13C HSQC experiments upon increasing concentration of ALDP peptide. […] (d) Quantification of chemical shift perturbation (CSP) of amide and methyl groups with respect to the PEX19 amino acid sequence. […] Grey colour refers to residues, which could not be analysed.
NMR spectra were acquired at 298 K on a Bruker Avance III 600-MHz spectrometer with a TCI cryo-probe head, an Avance III 750-MHz spectrometer with a TXI probe head, or an Avance 900 instrument with a TXI cryo-probe head. Spectra were processed using NMRPipe[31] and analysed with Sparky[32]. […] Backbone and side chain assignments were obtained from HNCA, HNCACB, CBCA(CO)NH, H(C)CH-TOCSY and (H)CCH-TOCSY spectra. ^13C- and ^15N- edited NOESY spectra with a mixing time of 70 ms were recorded to derive distance restraints. […]

PEX19 CTD M179R = test: Fluorescence polarization, ALDP peptide binding to PEX19 CTD M179R; design: species or system human; details: with or without farnesylation, FITC-labelled ALDP peptide 20 nM, triplicate (n = 3)
Procedure: as §1, §2, §3

PEX19 CTD I195K = test: Fluorescence polarization, ALDP peptide binding to PEX19 CTD I195K; design: species or system human; details: with or without farnesylation, FITC-labelled ALDP peptide 20 nM, triplicate (n = 3)
Procedure: as §1, §2, §3

farnesylated PEX19 CTD = molecular target: T3, farnesylated PEX19 CTD (Homo sapiens, UniProt P40855); test: NMR titration of farnesylated PEX19 CTD with PMP peptides; type: binding; details: 1H,15N HSQC; 298 K; ALDP at 5 and 10 molar ratio with 100 μM PEX19 CTD; PEX13 at 1:1.5 and 1:0.5 with 50 μM
T3 construct: we studied the human PEX19 CTD (residues 161–299) that includes the native C-terminus; hexahistidine (TEV-cleavable) (cleaved yes); made in house; host or cells: Escherichia coli BL21 (DE3); farnesylated in vitro with recombinant S. cerevisiae farnesyl transferase
T3 sequence (P40855 161-299): T1 sequence (P40855 161-299)

Sequence: AAKAGMNRVFLQRLL [ALDP peptide, peptide, residues 62–76 of human ALDP]
- binding to PEX19 CTD M255R (PEX19 CTD M255R): impaired binding
- affinity (in words) ([1]; farnesylated PEX19 CTD): micromolar affinity
- increase in affinity upon farnesylation of wild type PEX19 CTD ([1]; ratio farnesylated vs non-farnesylated wild type PEX19 CTD): seven
- helical conformation of free peptide [2]: preformed helical conformation
- NMR spectral changes of non-farnesylated PEX19 CTD [3]: no significant spectral changes
- binding to PEX19 CTD M179R (PEX19 CTD M179R): impaired binding
- binding to PEX19 CTD I195K (PEX19 CTD I195K): impaired binding
- NMR chemical shift perturbations / line broadening of farnesylated PEX19 CTD (farnesylated PEX19 CTD): distinct chemical shift perturbations
